Measurements taken from ChEMBL document CHEMBL3880421, “Indazole compounds and pharmaceutical compositions for inhibiting protein kinases, and methods for their use” (2003).

Experiments:
[1] = Antiproliferative activity against VEGF-stimulated HUVEC cells assessed as reduction in cell viability at 0.5 nM preincubated for 1 hr followed by addition of VEGF measured after 72 hrs by MTT assay; type: functional; details: Homo sapiens
[2] = Antiproliferative activity against VEGF-stimulated HUVEC cells assessed as reduction in cell viability at 2 nM preincubated for 1 hr followed by addition of VEGF measured after 72 hrs by MTT assay; type: functional; details: Homo sapiens

| Compound | inhibition at 0.0005 µM [1] [%] | inhibition at 0.002 µM [2] [%] |
| --- | --- | --- |
| CC(C)CC(C)NC(=O)c1ccccc1Nc1ccc2c(/C=C/c3ccccn3)n[nH]c2c1 (configuration not stated) | 55 | 50 |
| O=C(NC1CCCC1)c1ccccc1Nc1ccc2c(/C=C/c3ccccn3)n[nH]c2c1 | 43 | 96 |
| CCCCC(CC)CNC(=O)c1ccccc1Nc1ccc2c(/C=C/c3ccccn3)n[nH]c2c1 (configuration not stated) | 28 | 47 |
| C=C(C)CNC(=O)c1ccccc1Nc1ccc2c(/C=C/c3ccccn3)n[nH]c2c1 | 65 | 110 |
| CCCCCCCCNC(=O)c1ccccc1Nc1ccc2c(/C=C/c3ccccn3)n[nH]c2c1 | 26 | 16 |
| CCN1CCC[C@@H]1CNC(=O)c1ccccc1Nc1ccc2c(/C=C/c3ccccn3)n[nH]c2c1 | 8 | 37 |
| CN1CCCC1CCNC(=O)c1ccccc1Nc1ccc2c(/C=C/c3ccccn3)n[nH]c2c1 (configuration not stated) | 30 | 23 |
| C=CCONC(=O)c1ccccc1Nc1ccc2c(/C=C/c3ccccn3)n[nH]c2c1 | 51 to 92 | 103 to 108 |
| CCNC(=O)c1ccccc1Nc1ccc2c(/C=C/c3ccccn3)n[nH]c2c1 | 16 | 17 |
| CN(C)CCCCCCNC(=O)c1ccccc1Nc1ccc2c(/C=C/c3ccccn3)n[nH]c2c1 | 42 | 22 |
| O=C(NCc1ccccn1)c1ccccc1Nc1ccc2c(/C=C/c3ccccn3)n[nH]c2c1 | 6 | 43 |
| CC(O)CNC(=O)c1ccccc1Nc1ccc2c(/C=C/c3ccccn3)n[nH]c2c1 (configuration not stated) | 38 | 2 |
| CCN1CC(NC(=O)c2ccccc2Nc2ccc3c(/C=C/c4ccccn4)n[nH]c3c2)CN1CC | 2 | -19 |
| O=C(NCCC1=CCCCC1)c1ccccc1Nc1ccc2c(/C=C/c3ccccn3)n[nH]c2c1 | 24 | 86 |
| O=C(NN1CCOCC1)c1ccccc1Nc1ccc2c(/C=C/c3ccccn3)n[nH]c2c1 | 1 | 53 |
| O=C(N[C@@H]1CC=CC[C@@H]1CO)c1ccccc1Nc1ccc2c(/C=C/c3ccccn3)n[nH]c2c1 | 58 | 37 |
| O=C(NCCCN1CCCCC1)c1ccccc1Nc1ccc2c(/C=C/c3ccccn3)n[nH]c2c1 | 16 | 7 |
| O=C(NCC(c1ccccc1)c1ccccc1)c1ccccc1Nc1ccc2c(/C=C/c3ccccn3)n[nH]c2c1 | 11 | 15 |
| O=C(NCC(F)(F)F)c1ccccc1Nc1ccc2c(/C=C/c3ccccn3)n[nH]c2c1 | 34 to 53 | 61 to 95 |
| Cc1c(Cl)cccc1NC(=O)c1ccccc1Sc1ccc2c(/C=C/c3ccccn3)n[nH]c2c1 | 9 | – |
| Cc1cc(C)cc(NC(=O)c2ccccc2Sc2ccc3c(/C=C/c4ccccn4)n[nH]c3c2)c1 | -4 | – |
| CCC(NC(=O)c1ccccc1Nc1ccc2c(/C=C/c3ccccn3)n[nH]c2c1)c1ccccc1 (configuration not stated) | 45 | – |
| O=C(NC[C@@H](O)c1ccccc1)c1ccccc1Sc1ccc2c(/C=C/c3ccccn3)n[nH]c2c1 | 2 | – |
| O=C(NC[C@@H]1CCCO1)c1ccccc1Sc1ccc2c(/C=C/c3ccccn3)n[nH]c2c1 | -8 | – |
| C[C@@H](O)CNC(=O)c1ccccc1Sc1ccc2c(/C=C/c3ccccn3)n[nH]c2c1 | 22 | – |
| Cc1cccc(CNC(=O)c2ccccc2Nc2ccc3c(/C=C/c4ccccn4)n[nH]c3c2)c1 | 19 | – |

| Compound | inhibition at 0.0005 µM [1] [%] | inhibition at 0.002 µM [2] [%] |
| --- | --- | --- |
| COc1ccc(CNC(=O)c2ccccc2Nc2ccc3c(/C=C/c4ccccn4)n[nH]c3c2)cc1 | 63 | – |
| COc1ccc(NC(=O)c2ccccc2Sc2ccc3c(/C=C/c4ccccn4)n[nH]c3c2)cc1O | -19 | – |
| O=C(Nc1nccc2cccnc12)c1ccccc1Sc1ccc2c(/C=C/c3ccccn3)n[nH]c2c1 | -3 | – |
| Cc1ccc(F)cc1NC(=O)c1ccccc1Sc1ccc2c(/C=C/c3ccccn3)n[nH]c2c1 | 12 | – |
| O=C(N[C@H](CO)[C@@H](O)c1ccccc1)c1ccccc1Sc1ccc2c(/C=C/c3ccccn3)n[nH]c2c1 | 10 | – |
| O=C(NCCc1cccs1)c1ccccc1Sc1ccc2c(/C=C/c3ccccn3)n[nH]c2c1 | 36 | – |
| CCCCc1ccc(NC(=O)c2ccccc2Sc2ccc3c(/C=C/c4ccccn4)n[nH]c3c2)cc1 | -22 | – |
| O=C(NCc1ccccc1)c1ccccc1Nc1ccc2c(/C=C/c3ccccn3)n[nH]c2c1 | 70 | – |
| O=C(Nc1cc(Cl)ccc1O)c1ccccc1Sc1ccc2c(/C=C/c3ccccn3)n[nH]c2c1 | -22 | – |
| Cc1ccccc1NC(=O)c1ccccc1Sc1ccc2c(/C=C/c3ccccn3)n[nH]c2c1 | 5 | – |
| Cc1cc(C)c(O)c(NC(=O)c2ccccc2Sc2ccc3c(/C=C/c4ccccn4)n[nH]c3c2)c1 | -5 | – |
| CC(C)OCCNC(=O)c1ccccc1Nc1ccc2c(/C=C/c3ccccn3)n[nH]c2c1 | 51 | – |
| O=C(NCc1ccccc1F)c1ccccc1Nc1ccc2c(/C=C/c3ccccn3)n[nH]c2c1 | 75 | – |
| O=C(N[C@H]1CC2CCC1C2)c1ccccc1Sc1ccc2c(/C=C/c3ccccn3)n[nH]c2c1 (some centres not stated) | -9 | – |
| C#CC(NC(=O)c1ccccc1Sc1ccc2c(/C=C/c3ccccn3)n[nH]c2c1)C1CCCCC1 (configuration not stated) | 3 | – |
| CC(C)c1cccc(NC(=O)c2ccccc2Sc2ccc3c(/C=C/c4ccccn4)n[nH]c3c2)c1 | 8 | – |
| O=C(Nc1ccccc1Cl)c1ccccc1Sc1ccc2c(/C=C/c3ccccn3)n[nH]c2c1 | -2 | – |
| O=C(Nc1ccc(O)c2ccccc12)c1ccccc1Sc1ccc2c(/C=C/c3ccccn3)n[nH]c2c1 | 4 | – |
| O=C(N[C@H](CO)Cc1ccccc1)c1ccccc1Sc1ccc2c(/C=C/c3ccccn3)n[nH]c2c1 | 1 | – |
| C[C@H](NC(=O)c1ccccc1Sc1ccc2c(/C=C/c3ccccn3)n[nH]c2c1)C1CCCCC1 | -12 | – |
| Cc1cccc(NC(=O)c2ccccc2Sc2ccc3c(/C=C/c4ccccn4)n[nH]c3c2)c1 | 3 | – |
| Cc1ccc(NC(=O)c2ccccc2Sc2ccc3c(/C=C/c4ccccn4)n[nH]c3c2)cc1Cl | -11 | – |
| CC(C)(C)CNC(=O)c1ccccc1Nc1ccc2c(/C=C/c3ccccn3)n[nH]c2c1 | 5 to 19 | – |
| Cc1c(O)cccc1NC(=O)c1ccccc1Sc1ccc2c(/C=C/c3ccccn3)n[nH]c2c1 | 1 | – |
| O=C(Nc1cc(F)c(F)c(F)c1)c1ccccc1Sc1ccc2c(/C=C/c3ccccn3)n[nH]c2c1 | 0 | – |
| C[C@H](NC(=O)c1ccccc1Sc1ccc2c(/C=C/c3ccccn3)n[nH]c2c1)c1cccc2ccccc12 | -20 | – |

| Compound | inhibition at 0.0005 µM [1] [%] | inhibition at 0.002 µM [2] [%] |
| --- | --- | --- |
| O=C(Nc1ccc(O)cc1O)c1ccccc1Sc1ccc2c(/C=C/c3ccccn3)n[nH]c2c1 | 20 | – |
| O=C(Nc1ccc2c(c1)CCC2)c1ccccc1Sc1ccc2c(/C=C/c3ccccn3)n[nH]c2c1 | -6 | – |
| CC(C)(NC(=O)c1ccccc1Sc1ccc2c(/C=C/c3ccccn3)n[nH]c2c1)c1ccccc1 | -25 | – |
| O=C(Nc1c(F)cccc1Cl)c1ccccc1Sc1ccc2c(/C=C/c3ccccn3)n[nH]c2c1 | 12 | – |
| Cc1cc(NC(=O)c2ccccc2Sc2ccc3c(/C=C/c4ccccn4)n[nH]c3c2)ccc1Cl | -43 | – |
| O=C(NCc1cc(F)cc(F)c1F)c1ccccc1Sc1ccc2c(/C=C/c3ccccn3)n[nH]c2c1 | 24 | – |
| C[C@@H](NC(=O)c1ccccc1Sc1ccc2c(/C=C/c3ccccn3)n[nH]c2c1)c1cccc2ccccc12 | 1 | – |
| C[C@@H](CNC(=O)c1ccccc1Sc1ccc2c(/C=C/c3ccccn3)n[nH]c2c1)c1ccccc1 | 3 | – |
| O=C(Nc1ccc2ncsc2c1)c1ccccc1Sc1ccc2c(/C=C/c3ccccn3)n[nH]c2c1 | -20 | – |
| O=C(Nc1cnc2ccccc2c1)c1ccccc1Sc1ccc2c(/C=C/c3ccccn3)n[nH]c2c1 | -8 | – |
| CNc1ccccc1NC(=O)c1ccccc1Sc1ccc2c(/C=C/c3ccccn3)n[nH]c2c1 | -2 | – |
| CC(C)Oc1ccc(NC(=O)c2ccccc2Sc2ccc3c(/C=C/c4ccccn4)n[nH]c3c2)cc1 | -9 | – |
| COc1ccc(C(N)=O)cc1NC(=O)c1ccccc1Sc1ccc2c(/C=C/c3ccccn3)n[nH]c2c1 | 5 | – |
| CCCCC(NC(=O)c1ccccc1Sc1ccc2c(/C=C/c3ccccn3)n[nH]c2c1)C(=O)NO (configuration not stated) | 0 | – |
| CNC(=O)c1cccc(NC(=O)c2ccccc2Sc2ccc3c(/C=C/c4ccccn4)n[nH]c3c2)c1 | -11 | – |
| CCOC(=O)c1c[nH]nc1NC(=O)c1ccccc1Sc1ccc2c(/C=C/c3ccccn3)n[nH]c2c1 | -11 | – |
| CCCc1ccc(NC(=O)c2ccccc2Sc2ccc3c(/C=C/c4ccccn4)n[nH]c3c2)cc1 | 22 | – |
| Cc1ccccc1C(=O)NNC(=O)c1ccccc1Nc1ccc2c(/C=C/c3ccccn3)n[nH]c2c1 | 86 | – |
| O=C(NC[C@H]1CCCO1)c1ccccc1Sc1ccc2c(/C=C/c3ccccn3)n[nH]c2c1 | -11 | – |
| CC(O)c1cccc(NC(=O)c2ccccc2Sc2ccc3c(/C=C/c4ccccn4)n[nH]c3c2)c1 (configuration not stated) | -32 | – |
| O=C(Nc1ccc(F)c(F)c1)c1ccccc1Sc1ccc2c(/C=C/c3ccccn3)n[nH]c2c1 | -38 | – |
| O=C(Nc1cncc(Cl)n1)c1ccccc1Sc1ccc2c(/C=C/c3ccccn3)n[nH]c2c1 | 17 | – |
| Cc1cc(NC(=O)c2ccccc2Sc2ccc3c(/C=C/c4ccccn4)n[nH]c3c2)ccc1C(C)C | 6 | – |
| C[C@@H](NC(=O)c1ccccc1Sc1ccc2c(/C=C/c3ccccn3)n[nH]c2c1)C1CCCCC1 | 9 | – |
| C[N+](C)(C)NC(=O)c1ccccc1Nc1ccc2c(/C=C/c3ccccn3)n[nH]c2c1 | 8 | – |
| C[C@H](NC(=O)c1ccccc1Sc1ccc2c(/C=C/c3ccccn3)n[nH]c2c1)c1ccc2ccccc2c1 | -8 | – |
